Like-named read-outs stand apart in the source and are kept apart here.
Key:
[1] = system: SARS-CoV-2 (USA-WA1/2020) in Calu-3 cells; assay: microbe, parasite or virus in culture; type: cell-based; details: for Effect on dsRNA / virus in dose response: Figure 5C-F; for EC50: Severe acute respiratory syndrome coronavirus 2, Calu-3, 48 h, read-out: EC50 (μM) dsRNA
[2] = system: Calu-3 cells infected with SARS-CoV-2; type: cell-based, human; set-up: key to Grouping with red cluster (mock control) in UMAP: *: Clusters with mock control in high-dose treatment; details: for Shift in UMAP space with increasing concentration: Figure 5C-F; for Grouping with red cluster (mock control) in UMAP: high-dose treatment
[3] = system: SARS-CoV-2 (USA-WA1/2020) in Calu-3 cells; type: cell-based; details: for dsRNA signal, AU High: high dose (10 µM); for dsRNA signal, AU High / dsRNA signal, AU Low: Calu-3, 48 h; for dsRNA signal, AU Low: low dose (100 nM)
Calu-3 cells [4] = details: for Effect on host cell viability and morphology: Figure 5C-F
Calu-3 cells [5] = assay: cells; details: Homo sapiens, Calu-3, read-out: EC50 (μM) Cell count
[6] = system: SARS-Cov-2 WA strain in A549 lung cells; type: cell-based
[7] = […], above 30 μM reported as >30

| SMILES | Effect on dsRNA / virus in dose response [1] | EC50 [1, 7] [µM] | Selectivity index ([1]; fold: cell count EC50 over dsRNA EC50) | Shift in UMAP space with increasing concentration [2] | Grouping with red cluster (mock control) in UMAP [2] | Reduction of infection in representative images ([3]; Figure 4A) | dsRNA signal, AU High [3] [AU] | dsRNA signal, AU Low [3] [AU] | Effect on host cell viability and morphology (Calu-3 cells [4]) | EC50 (Calu-3 cells [5]) [µM] | Selectivity index [1] | Synergy (ZIP synergy model) [6] | EC50 (μM) dsRNA [1, 7] | EC50 (Calu-3 cells [4]; read-out: EC50 (μM) Cell count, Calu-3, DAPI-stained nuclei, above 30 μM reported as >30) [µM] |
| --- | --- | --- | --- | --- | --- | --- | --- | --- | --- | --- | --- | --- | --- | --- |
| Cc1c(Cn2c(C)nc3c(C(=O)O)cc(N4CCOCC4)cc32)cccc1C(F)(F)F [GSK2636771] | reduction of dsRNA | 0.319 | >94 | shift closer to cluster 1 controls | GSK2636771* | reduced infection greatly | 841.3 | 28354.9 | minimal effect on host cell viability and morphology | > 30 |  |  |  |  |
| CC(C)n1nc(-c2ccc3oc(N)nc3c2)c2c(N)ncnc21 [INK 128] |  | 0.213 |  | moving into cluster 1 | INK 128* |  | 0.0 | 31875.7 | little effect on host cell viability | 2.47 | 11.590 | Antagonism |  |  |
| CCc1cc2c(cc1N1CCC(N3CCOCC3)CC1)C(C)(C)c1[nH]c3cc(C#N)ccc3c1C2=O [CH5424802] | reduced dsRNA very well | > 30 |  | adjacent yellow cluster |  |  |  |  | blebbing and general toxicity | > 30 |  |  |  |  |
| O=C(O[C@@H]1Cc2c(O)cc(O)cc2O[C@@H]1c1cc(O)c(O)c(O)c1)c1cc(O)c(O)c(O)c1 [Epigallocatechin gallate (EGCG), Epigallocatechin gallate] |  |  |  |  | Epigallocatechin gallate (EGCG)* |  | 14230.9 | 24448.0 |  |  |  |  | None | > 30 |
